This is an account of results in patent US8410117B2, “Imidazopyrimidine derivatives” (Hoffmann-La Roche Inc., priority 2010, dated 2013).

Usually IC50 stands for the concentration needed to halve the response being measured. What is called melting point is the temperature of the solid-liquid transition.

For the first series, the target named is T1, human PDE10A (Homo sapiens, UniProt Q9Y233).
T1 construct: The human PDE10A full length assay; purchased Enzo Life Science, Lausen, Switzerland SE-534
T1 sequence (Q9Y233 1-779 isoform Q9Y233-1): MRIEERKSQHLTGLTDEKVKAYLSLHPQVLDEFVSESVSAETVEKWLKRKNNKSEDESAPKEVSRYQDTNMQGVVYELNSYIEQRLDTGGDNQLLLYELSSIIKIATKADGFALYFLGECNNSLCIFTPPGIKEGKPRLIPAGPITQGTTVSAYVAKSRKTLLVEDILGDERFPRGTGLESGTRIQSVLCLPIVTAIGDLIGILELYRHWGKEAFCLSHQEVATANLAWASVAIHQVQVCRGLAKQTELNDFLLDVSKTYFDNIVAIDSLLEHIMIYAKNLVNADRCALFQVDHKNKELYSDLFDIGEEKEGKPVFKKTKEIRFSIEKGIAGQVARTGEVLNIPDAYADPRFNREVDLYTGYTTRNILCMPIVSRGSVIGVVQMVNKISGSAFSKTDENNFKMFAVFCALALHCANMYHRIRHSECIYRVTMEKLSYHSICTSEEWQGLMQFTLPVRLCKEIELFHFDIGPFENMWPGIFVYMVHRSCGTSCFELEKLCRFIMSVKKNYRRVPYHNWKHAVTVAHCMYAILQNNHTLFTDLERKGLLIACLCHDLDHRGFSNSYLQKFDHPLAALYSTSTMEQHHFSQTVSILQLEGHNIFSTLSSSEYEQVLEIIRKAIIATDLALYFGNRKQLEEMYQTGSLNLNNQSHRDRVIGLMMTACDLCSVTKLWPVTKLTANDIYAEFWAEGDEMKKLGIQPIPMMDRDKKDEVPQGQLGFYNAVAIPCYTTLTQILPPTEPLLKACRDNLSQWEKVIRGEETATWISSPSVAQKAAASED
Description: human PDE10A full length Scintillation Proximity Assay (SPA). The format is biochemical. As to conditions: 50 nM cGMP and 50 nM [3H]-cGMP, 20 minutes at room temperature; read-out: PDE10A inhibition IC50. Summed up: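 Full-length enzyme at 3.75 ng/well in 20 mM HEPES pH 7.5, 10 mM MgCl2, 0.05 mg/ml BSA, with 50 nM cGMP plus 50 nM [3H]-cGMP substrate, 20 min at room temperature. Stopped with YSi-SPA beads in zinc sulphate and counted by scintillation. IC50 from inhibitor concentration series; no-enzyme wells define background.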
(In general: Scintillation proximity formats need no separation of bound from free tracer.)
Turning to `Cc1cc(C(=O)Nc2ccn3cc(-c4ccccc4)nc3n2)ccn1` [Example 80, 2-Methyl-N-(2-phenylimidazo[1,2-a]pyrimidin-7-yl)isonicotinamide], the IC50 is 0.496 µM.

For the molecule `Cc1ncc(Cl)c(C(=O)Nc2ccn3cc(-c4ccccc4)nc3n2)n1` [Example 79, 5-Chloro-2-methyl-N-(2-phenylimidazo[1,2-a]pyrimidin-7-yl)pyrimidine-4-carboxamide], the IC50 came out at 0.247 µM.

Turning to `COc1ncccc1C(=O)Nc1ccn2cc(-c3ccccc3)nc2n1` [Example 78, 2-Methoxy-N-(2-phenylimidazo[1,2-a]pyrimidin-7-yl)nicotinamide], the half-maximal inhibitory concentration (IC50) is 0.125 µM.

For the molecule `CCN(C)C(=O)c1nn(C)cc1C(=O)Nc1ccn2cc(-c3ccccc3)nc2n1` [Example 67, 1-Methyl-1H-pyrazole-3,4-dicarboxylic acid 3-(ethyl-methyl-amide) 4-[(2-phenyl-imidazo[1,2-a]pyrimidin-7-yl)-amide]], the IC50 turned out to be 0.0257 µM.

As to `CCN(CC)C(=O)c1cnn(C)c1C(=O)Nc1ccn2cc(-c3ccccc3)nc2n1` [Example 47, 2-Methyl-2H-pyrazole-3,4-dicarboxylic acid 4-diethylamide 3-[(2-phenyl-imidazo[1,2-a]pyrimidin-7-yl)-amide]], the IC50 worked out at 0.0152 µM.

Turning to `Cc1cc(C(=O)Nc2ccn3cc(-c4ccccc4)nc3n2)cc(Cl)n1` [Example 81, 2-Chloro-6-methyl-N-(2-phenylimidazo[1,2-a]pyrimidin-7-yl)isonicotinamide], the IC50 worked out at 0.703 µM.

Take `Cn1ncc(C(=O)NC(C)(C)C)c1C(=O)Nc1ccn2cc(-c3ccccc3)nc2n1` [Example 138, N4-tert-butyl-1-methyl-N5-(2-phenylimidazo[1,2-a]pyrimidin-7-yl)-1H-pyrazole-4,5-dicarboxamide]: the IC50 was 0.13 µM.

In the case of `Cn1ncc(C(=O)NC2CCC2)c1C(=O)Nc1ccn2cc(-c3ccccc3)nc2n1` [Example 59, 2-Methyl-2H-pyrazole-3,4-dicarboxylic acid 4-cyclobutylamide 3-[(2-phenyl-imidazo[1,2-a]pyrimidin-7-yl)-amide]], the half-inhibitory concentration (IC50) was 0.0211 µM.

Regarding `CCN(C)C(=O)c1cnn(CC)c1C(=O)Nc1ccn2cc(-c3ccccc3)nc2n1` [Example 73, 2-Ethyl-2H-pyrazole-3,4-dicarboxylic acid 4-(ethyl-methyl-amide) 3-[(2-phenyl-imidazo[1,2-a]pyrimidin-7-yl)-amide]], the IC50 was determined as 0.0028 µM.

On to `Cc1cccc(C(=O)Nc2ccn3cc(-c4ccccc4)nc3n2)n1` [Example 25, 6-Methyl-pyridine-2-carboxylic acid (2-phenyl-imidazo[1,2-a]pyrimidin-7-yl)-amide], for which the IC50 is 0.324 µM.

For `CN(Cc1ccccn1)C(=O)c1cnn(C)c1C(=O)Nc1ccn2cc(-c3ccccc3)nc2n1` [Example 135, N4,1-dimethyl-N5-(2-phenylimidazo[1,2-a]pyrimidin-7-yl)-N4-(pyridin-2-ylmethyl)-1H-pyrazole-4,5-dicarboxamide], the IC50 stood at 0.0641 µM.

Consider `Cn1ncc(C(=O)N2CC(F)C2)c1C(=O)Nc1ccn2cc(-c3cccc(F)c3)nc2n1` [Example 92, 4-(3-Fluoro-azetidine-1-carbonyl)-2-methyl-2H-pyrazole-3-carboxylic acid [2-(3-fluoro-phenyl)-imidazo[1,2-a]pyrimidin-7-yl]-amide], for which the IC50 came out at 0.0065 µM.

For `Cn1ncc(C(=O)NCc2ncco2)c1C(=O)Nc1ccn2cc(-c3ccccc3)nc2n1` [Example 122, 1-methyl-N4-(oxazol-2-ylmethyl)-N5-(2-phenylimidazo[1,2-a]pyrimidin-7-yl)-1H-pyrazole-4,5-dicarboxamide], the concentration for half-maximal inhibition (IC50) worked out at 0.0169 µM.

In the case of `Cn1ncc(C(=O)N2CCC2)c1C(=O)Nc1ccn2cc(-c3cccc(-c4ccccc4)c3)nc2n1` [Example 128, 4-(azetidine-1-carbonyl)-N-(2-(biphenyl-3-yl)imidazo[1,2-a]pyrimidin-7-yl)-1-methyl-1H-pyrazole-5-carboxamide], the IC50 amounted to 0.026 µM.

As to `Cn1ccc(CNC(=O)c2cnn(C)c2C(=O)Nc2ccn3cc(-c4ccccc4)nc3n2)n1` [Example 157, 1-methyl-N-4-((1-methyl-1H-pyrazol-3-yl)methyl)-N5-(2-phenylimidazo[1,2-a]pyrimidin-7-yl)-1H-pyrazole-4,5-dicarboxamide], the IC50 was found to be 0.389 µM.

For the molecule `CCNC(=O)c1cnn(C)c1C(=O)Nc1ccn2cc(-c3ccccc3)nc2n1` [Example 50, 2-Methyl-2H-pyrazole-3,4-dicarboxylic acid 4-ethylamide 3-[(2-phenyl-imidazo[1,2-a]pyrimidin-7-yl)-amide]], the IC50 was found to be 0.0244 µM.

For `CC(C)NC(=O)c1cnn(C)c1C(=O)Nc1ccn2cc(-c3ccccc3)nc2n1` [Example 60, 2-Methyl-2H-pyrazole-3,4-dicarboxylic acid 4-isopropylamide 3-[(2-phenyl-imidazo[1,2-a]pyrimidin-7-yl)-amide]], the IC50 stood at 0.0806 µM.

Turning to `Cn1ncc(C(=O)NCc2cn3ccsc3n2)c1C(=O)Nc1ccn2cc(-c3ccccc3)nc2n1` [Example 153, N4-(imidazo[2,1-b]thiazol-6-ylmethyl)-1-methyl-N5-(2-phenylimidazo[1,2-a]pyrimidin-7-yl)-1H-pyrazole-4,5-dicarboxamide], the IC50 was found to be 0.305 µM.

`COC(=O)c1[nH]nnc1C(=O)Nc1ccn2cc(-c3ccccc3)nc2n1` [Example 26, 5-(2-Phenyl-imidazo[1,2-a]pyrimidin-7-ylcarbamoyl)-3H-[1,2,3]triazole-4-carboxylic acid methyl ester]: the IC50 worked out at 0.024 µM.

As to `CCN(C)C(=O)c1[nH]nnc1C(=O)Nc1ccn2cc(-c3ccccc3)nc2n1` [Example 28, 1H-[1,2,3]Triazole-4,5-dicarboxylic acid 5-(ethyl-methyl-amide) 4-[(2-phenyl-imidazo[1,2-a]pyrimidin-7-yl)-amide]], the IC50 came out at 0.251 µM.

Turning to `COCCCNC(=O)c1cnn(C)c1C(=O)Nc1ccn2cc(-c3ccccc3)nc2n1` [Example 39, 2-Methyl-2H-pyrazole-3,4-dicarboxylic acid 4-[(3-methoxy-propyl)-amide]3-[(2-phenyl-imidazo[1,2-a]pyrimidin-7-yl)-amide]], the IC50 was found to be 0.0864 µM.

`Cn1ncc(C(=O)N2CCC2)c1C(=O)Nc1ccn2cc(-c3ccccc3)nc2n1` [Example 29, 4-(Azetidine-1-carbonyl)-2-methyl-2H-pyrazole-3-carboxylic acid (2-phenyl-imidazo[1,2-a]pyrimidin-7-yl)-amide]: the IC50 is 0.0033 µM.

Regarding `Cn1ncc(C(=O)N2CCOCC2)c1C(=O)Nc1ccn2cc(-c3ccccc3)nc2n1` [Example 30, 2-Methyl-4-(morpholine-4-carbonyl)-2H-pyrazole-3-carboxylic acid (2-phenyl-imidazo[1,2-a]pyrimidin-7-yl)-amide], the IC50 was 0.0331 µM.

`CCCn1ncc(Cl)c1C(=O)Nc1ccn2cc(-c3ccccc3)nc2n1` [Example 8, 4-Chloro-2-propyl-2H-pyrazole-3-carboxylic acid (2-phenyl-imidazo[1,2-a]pyrimidin-7-yl)-amide]: the IC50 was 0.0647 µM.

Regarding `CC(C)Cn1nc([N+](=O)[O-])cc1C(=O)Nc1ccn2cc(-c3ccccc3)nc2n1` [Example 13, 2-Isobutyl-5-nitro-2H-pyrazole-3-carboxylic acid (2-phenyl-imidazo[1,2-a]pyrimidin-7-yl)-amide], the IC50 was determined as 0.0479 µM.

`Cc1ccc(C)c(C(=O)Nc2ccn3cc(-c4ccccc4)nc3n2)n1` [Example 17, 3,6-Dimethyl-pyridine-2-carboxylic acid (2-phenyl-imidazo[1,2-a]pyrimidin-7-yl)-amide]: the concentration for half-maximal inhibition (IC50) was found to be 0.0283 µM.

With `CCOC(=O)c1cnn(CC)c1C(=O)Nc1ccn2cc(-c3ccccc3)nc2n1` [Example 62, 1-Ethyl-5-(2-phenyl-imidazo[1,2-a]pyrimidin-7-ylcarbamoyl)-1H-pyrazole-4-carboxylic acid ethyl ester], the IC50 amounted to 0.0129 µM.

System in a further series: not given
Test: not given
Conditions: not given
On to `Cc1cc(C(=O)Nc2ccn3cc(-c4ccccc4)nc3n2)ccn1` [Example 80, 2-Methyl-N-(2-phenylimidazo[1,2-a]pyrimidin-7-yl)isonicotinamide], for which the melting point lay within 255 to 257 °C.

Regarding `Cc1ncc(Cl)c(C(=O)Nc2ccn3cc(-c4ccccc4)nc3n2)n1` [Example 79, 5-Chloro-2-methyl-N-(2-phenylimidazo[1,2-a]pyrimidin-7-yl)pyrimidine-4-carboxamide], the melting point is more than 250 °C.

Molecule `COc1ncccc1C(=O)Nc1ccn2cc(-c3ccccc3)nc2n1` [Example 78, 2-Methoxy-N-(2-phenylimidazo[1,2-a]pyrimidin-7-yl)nicotinamide] showed a melting point of 225 to 226 °C.

As to `Cc1cc(C(=O)Nc2ccn3cc(-c4ccccc4)nc3n2)cc(Cl)n1` [Example 81, 2-Chloro-6-methyl-N-(2-phenylimidazo[1,2-a]pyrimidin-7-yl)isonicotinamide], the melting point fell in the range of 148 to 151 °C.

The subject of a further series is rats.
Test: not given
The note with it: sub-chronic treatment with PCP; cited from earlier work.
Turning to `COc1ccc(Cc2nccc3cc(OC)c(OC)cc23)cc1OC` [papaverine, Papaverine], the “deficits in the extra-dimensional shift learning” value is reported as “attenuate the deficits in the extra-dimensional shift learning”.
